Assay results published in PubChem BioAssay (NCI).
Several values for one entry are separate records, joined by “and”; a condition that tells them apart may be missing. Equal values may be shown once.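 Exposure lasted 48 hours, with cells grown in 96-well plates and compounds tested at five concentrations. Abbreviation: GI50, concentration required for 50% inhibition of growth. TGI: concentration producing complete growth inhibition.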

How the values were obtained:
Assay in all cases: NCI-60 cell line screen, 48 h
[1] = system: MDA-MB-435
[2] = system: IGROV1 ovarian
[3] = system: PC-3 prostate
[4] = system: HCT-15 colon
[5] = system: SN12C renal
[6] = system: NCI-H460 lung
[7] = system: NCI-H23 lung
[8] = system: MCF7 breast
[9] = system: SK-MEL-2 melanoma
[10] = system: HCC-2998 colon
[11] = system: SR leukemia
[12] = system: BT-549 breast
[13] = system: ACHN renal
[14] = system: SNB-75 CNS
[15] = system: KM12 colon
[16] = system: SK-MEL-5 melanoma
[17] = system: NCI-H522 lung
[18] = system: UO-31 renal
[19] = system: OVCAR-3 ovarian
[20] = system: RPMI-8226 leukemia
[21] = system: OVCAR-8 ovarian
[22] = system: MOLT-4 leukemia
[23] = system: HCT-116 colon
[24] = system: SF-268 CNS
[25] = system: NCI-H226 lung
[26] = system: SK-MEL-28 melanoma
[27] = system: T-47D breast
[28] = system: EKVX NSCLC
[29] = system: SNB-19 CNS

In the case of `O=C(O)CCC1CCC(c2cc(F)ccc2F)(S(=O)(=O)c2ccc(Cl)cc2)CC1` (configuration not stated), the TGI [1] is reported as 31.2 µM and > 92.7 µM, the GI50 [2] is reported as 18 µM and 80.7 µM and the TGI [2] is reported as 65 µM and > 100 µM. For the same molecule, the GI50 [3] was 75.8 µM and > 100 µM, the TGI [3] was greater than 100 µM and the GI50 [4] was 33.7 µM and 47.8 µM. For the same molecule, the TGI [4] was greater than 100 µM, the GI50 [5] was 49 µM and > 100 µM and the TGI [5] was greater than 100 µM. The GI50 [6] was 42.5 µM and > 100 µM, the TGI [6] was greater than 100 µM and the GI50 [7] was 23.4 µM and > 100 µM. The TGI [7] was greater than 100 µM, the GI50 [8] was 29.2 µM and > 81.4 µM and the TGI [8] was greater than 100 µM. The GI50 [9] was 20.1 µM and > 100 µM, the TGI [9] was 69.7 µM and > 100 µM and the GI50 [10] was 38 µM and > 75.4 µM. For the same molecule, the TGI [10] was greater than 100 µM, the GI50 [11] was 25.5 µM and > 47.3 µM and the TGI [11] was greater than 100 µM. The GI50 [12] was 10.9 µM and 97.8 µM, the TGI [12] was 43.1 µM and > 100 µM and the GI50 [13] was 56.7 µM and > 100 µM. The TGI [13] was greater than 100 µM, the GI50 [14] was 15.9 µM and > 72.2 µM and the TGI [14] was 55.8 µM and > 100 µM. The GI50 [15] was 34.3 µM and 85.5 µM, the TGI [15] was greater than 100 µM and the GI50 [16] was 27.6 µM and > 100 µM. The TGI [16] was greater than 100 µM, the GI50 [17] was 20.7 µM and > 100 µM and the TGI [17] was 79.7 µM and > 100 µM. For the same molecule, the GI50 [18] was 22.7 µM and > 100 µM, the TGI [18] was greater than 100 µM and the GI50 [19] was 22.7 µM and > 100 µM. The TGI [19] was 63.5 µM and > 100 µM, the GI50 [20] was 71.4 µM and > 100 µM and the TGI [20] was greater than 100 µM. The GI50 [21] was 74.8 µM and > 100 µM, the TGI [21] was greater than 100 µM and the GI50 [22] was 41.2 µM and > 59.7 µM. The TGI [22] was greater than 100 µM, the GI50 [23] was 23.5 µM and > 100 µM and the TGI [23] was greater than 100 µM. For the same molecule, the GI50 [24] was 48.3 µM and > 100 µM, the TGI [24] was greater than 100 µM and the GI50 [25] was 41.2 µM and > 100 µM. For the same molecule, the TGI [25] was greater than 100 µM, the GI50 [26] was 25.5 µM and > 100 µM and the TGI [26] was greater than 100 µM. For the same molecule, the GI50 [27] was 28.6 µM and > 100 µM, the TGI [27] was greater than 100 µM and the GI50 [28] was 15.1 µM and > 68.5 µM. The TGI [28] was greater than 100 µM, the GI50 [29] was 55.1 µM and > 100 µM and the TGI [29] was greater than 100 µM.
